Consider one compound from PMC4556431 (Angewandte Chemie (International ed. in English), 2015).

The assay has as its target Cif (CFTR inhibitory factor) (Pseudomonas aeruginosa, UniProt A0A0H2ZD27). In words: epoxide hydrolase inhibition assay. In kind it is biochemical.

Chain of Cif (CFTR inhibitory factor) (A0A0H2ZD27 25-319 limits assumed): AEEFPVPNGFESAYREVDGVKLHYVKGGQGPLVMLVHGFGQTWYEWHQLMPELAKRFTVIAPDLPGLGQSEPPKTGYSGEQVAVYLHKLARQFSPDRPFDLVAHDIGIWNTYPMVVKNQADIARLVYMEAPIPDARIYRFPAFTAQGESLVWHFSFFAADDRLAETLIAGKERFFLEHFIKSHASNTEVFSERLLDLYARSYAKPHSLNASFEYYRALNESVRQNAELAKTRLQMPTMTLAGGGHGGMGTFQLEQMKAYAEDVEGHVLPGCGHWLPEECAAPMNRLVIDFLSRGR

The term IC50 denotes the concentration that inhibits the measured activity by half. Lower therefore signals inhibition by little substance. The compound `N[C@@H](Cc1cc(I)c(Oc2cc(I)c(O)c(I)c2)c(I)c1)C(=O)O` [compound 9, 9] displayed a half-inhibitory concentration (IC50) above 100 µM.
